In patent US20110294843A1, “ADMINISTRATION SCHEME OF POLAR OPIOID METABOLITES FOR POST-OPERATIVE PAIN MANAGEMENT” (PAION UK Limited, priority 2008, published 2011):
Read-outs that look alike come from different tables or passages of the source.

Key:
[1] = Pharmacokinetics of M6G at single and multiple intravenous doses in healthy volunteers; assay type: in vivo, human; details: for MRT inf / Vd / half-life / clearance / AUC(0-inf) / Cmax: both sexes, human, plasma, iv; for MRT inf: read-out: MRT0-∞; for Vd: read-out: Vss; for half-life: read-out: t½ (converted); for AUC(0-inf): read-out: AUC0-∞; for Cmax: read-out: Cmax; for CLss / MRT24-∞: multiple dose, Dose 5-15 mg
Protocol: Healthy male and female subjects were divided into two groups (A and B) with 12 in each. Group A received three single intravenous infusions of M6G over 5 mins at levels of 15, 30 and 45 mg/70 kg in random order, having taken 50 mg of naloxone orally 24 hrs beforehand. There was a seven-day wash-out period between each dose. Blood samples were taken pre-dose and at the following time-points: 3, 5, 15, 30 mins and 1, 2, 3, 4, 6, 12 and 24 hrs after the start of the infusion. Group, B received five, 15 mg/70 kg, intravenous infusions of M6G, each over five minutes, at 6-hourly intervals, having taken a 50 mg oral dose of naloxone 24 hrs before the first infusion. Blood samples were taken before each of the 5 doses, and at 3, 5, 15, 30 mins and at 1, 2, 3 and 4 hrs after the initiation of the 1st and 5th infusions and at 6 hrs after the 5th dose. Vital signs (supine blood pressure, pulse, respiratory rate and oral temperature), respiration rate, pulse oximetry and adverse events were monitored during the study. Plasma levels of M6G were measured using HPLC/ms/ms.

[2] = target: μ-opioid receptor (Homo sapiens, UniProt P35372); details: cited from earlier work
μ-opioid receptor, sequence (P35372 whole entry, species assumed): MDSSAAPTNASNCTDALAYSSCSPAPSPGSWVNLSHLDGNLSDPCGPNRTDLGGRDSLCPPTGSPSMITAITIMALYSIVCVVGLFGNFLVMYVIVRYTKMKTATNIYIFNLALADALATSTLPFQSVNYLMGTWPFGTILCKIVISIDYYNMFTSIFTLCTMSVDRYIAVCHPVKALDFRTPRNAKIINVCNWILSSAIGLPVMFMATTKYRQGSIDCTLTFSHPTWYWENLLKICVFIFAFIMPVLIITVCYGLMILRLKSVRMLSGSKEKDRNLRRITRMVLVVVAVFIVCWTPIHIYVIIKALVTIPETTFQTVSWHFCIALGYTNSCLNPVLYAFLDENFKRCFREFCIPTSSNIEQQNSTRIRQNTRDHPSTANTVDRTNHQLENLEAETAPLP

[3] = test system: patients with pain treatment after surgery; experiment: Meta analysis of four clinical studies with M6G pain treatment after surgery
Text: The four studies M6G001, M6G012, M6G015 and M6G022 are described in the following.
The following variables were included in the meta analysis:
Nausea (none, mild, moderate, severe)
Sedation (none, mild, moderate, severe)
Pain (none, mild, moderate, severe)

[4] = 15 mg/70 kg, single 5 min iv infusion 15 mg, Mean
[5] = 15 mg/70 kg, single 5 min iv infusion 15 mg, Median
[6] = 30 mg/70 kg, single 5 min iv infusion 30 mg, Geometric Mean
[7] = 30 mg/70 kg, single 5 min iv infusion 30 mg, Mean
[8] = 30 mg/70 kg, single 5 min iv infusion 30 mg, Median
[9] = 45 mg/70 kg, single 5 min iv infusion 45 mg, Geometric Mean
[10] = 45 mg/70 kg, single 5 min iv infusion 45 mg, Mean
[11] = 45 mg/70 kg, single 5 min iv infusion 45 mg, Median

CN1CC[C@]23c4c5ccc(O)c4O[C@H]2[C@@H](OC2OC(C(=O)O)C(O)C(O)C2O)C=CC3[C@H]1C5 (stereo partly drawn) [M6G, (5α,6α)-7,8-Didehydro-4,5-epoxy-3-hydroxy-17-methylmorphinan-β-yl-β-D-glucopyranosiduronic acid]
MRT inf [1, 4]: 1.65 h | Vd [1, 4]: 13 L | half-life [1, 4]: 1.48 h | clearance [1, 5]: 133 mL/min | AUC(0-inf) [1, 5]: 1880 ng·h/mL | Cmax [1, 5]: 1650 ng/mL | MRT inf [1, 5]: 1.69 h | Vd [1, 5]: 12.6 L | half-life [1, 5]: 1.56 h | clearance [1, 6]: 121 mL/min | AUC(0-inf) [1, 6]: 4140 ng·h/mL | Cmax [1, 6]: 3870 ng/mL | MRT inf [1, 6]: 1.76 h | Vd [1, 6]: 12.7 L | half-life [1, 6]: 1.7 h | clearance [1, 7]: 122 mL/min | AUC(0-inf) [1, 7]: 4190 ng·h/mL | Cmax [1, 7]: 3980 ng/mL | MRT inf [1, 7]: 1.77 h | Vd [1, 7]: 12.8 L | half-life [1, 7]: 1.72 h | clearance [1, 8]: 125 mL/min | AUC(0-inf) [1, 8]: 4000 ng·h/mL | Cmax [1, 8]: 4110 ng/mL | MRT inf [1, 8]: 1.81 h | Vd [1, 8]: 12.2 L | half-life [1, 8]: 1.81 h | clearance [1, 9]: 128 mL/min | AUC(0-inf) [1, 9]: 5850 ng·h/mL | Cmax [1, 9]: 5720 ng/mL | MRT inf [1, 9]: 1.66 h | Vd [1, 9]: 12.8 L | half-life [1, 9]: 1.62 h | clearance [1, 10]: 130 mL/min | AUC(0-inf) [1, 10]: 5910 ng·h/mL | Cmax [1, 10]: 5860 ng/mL | MRT inf [1, 10]: 1.68 h | Vd [1, 10]: 12.9 L | half-life [1, 10]: 1.64 h | clearance [1, 11]: 136 mL/min | AUC(0-inf) [1, 11]: 5500 ng·h/mL | Cmax [1, 11]: 5860 ng/mL | MRT inf [1, 11]: 1.78 h | Vd [1, 11]: 13.1 L | half-life [1, 11]: 1.69 h | accumulation, AUC0-∞ ([1]; five 15 mg iv infusions at 6 hour intervals): 2.9% | safety ([1]; healthy volunteers, single and multiple iv doses): No clinically significant safety issues | CLss ([1]; Geometric Mean): 7261 mL/h | MRT24-∞ ([1]; Geometric Mean): 1.63 h | CLss ([1]; Mean): 7303 mL/h | MRT24-∞ ([1]; Mean): 1.65 h | CLss ([1]; Median): 7173 mL/h | MRT24-∞ ([1]; Median): 1.64 h | affinity for the μ-opioid receptor compared with morphine [2]: comparable affinity | patients with moderate to severe sedation ([3]; human, in vivo, intravenous): 63.5% | patients with moderate to severe pain ([3]; time window 0 to 6 hours): 50.5% | patients with moderate to severe pain ([3]; time window 6-24 hours): 19.1% | patients with moderate to severe nausea ([3]; worst assessment): 23.9% | patients with vomiting ([3]; worst assessment): 26.0%
